Measurements published in ChEMBL document CHEMBL2321853, “Novel acylethanolamide derivatives that modulate body weight through enhancement of hypothalamic pro-opiomelanocortin (POMC) and/or decreased neuropeptide Y (NPY)” (J Med Chem, 2013).
The source made the active and inactive calls. The rule behind the calls is not given here.

Columns and labels:
Mus musculus [1] = assay: Antiobesity activity in Sabra mouse assessed as change in body weight at 1 mg/kg, ip administered on day 8, 9, 10, 11, 14, 18, 24 and 32 measured on day 14 relative to control; type: functional; settings: route intraperitoneal
Mus musculus [2] = assay: Antiobesity activity in Sabra mouse assessed as change in body weight at 1 mg/kg, ip administered on day 8, 12 and 43 measured on day 15 relative to control; type: functional; settings: route intraperitoneal
Mus musculus [3] = assay: Antiobesity activity in C57BL/6 mouse assessed as weight loss at 5 mg/kg, ip administered on day 1, 4, 5, 7, 17, 15, 19 measured on day 3 relative to control; type: functional; settings: route intraperitoneal
Mus musculus [4] = assay: Antiobesity activity in Sabra mouse assessed as change in food consumption at 1 mg/kg, ip administered on day 8, 9, 10, 11, 14, 18, 24 and 32 measured after 2 weeks relative to control; type: functional; settings: route intraperitoneal
Mus musculus [5] = assay: Antiobesity activity in C57BL/6 mouse assessed as change in glucose level in blood at 5 mg/kg, ip administered on day 1, 4, 5, 7, 17, 15, 19 measured on day 15 relative to control; type: functional; settings: route intraperitoneal
Mus musculus [6] = assay: Hepatotoxicity in Sabra mouse assessed as coagulative necrosis changes at 1 mg/kg, ip administered on day 8, 9, 10, 11, 14, 18, 24 and 32 by hematoxylin and eosin staining-based histopathological analysis; type: toxicity, organism-based; set-up: dose 1 mg/kg, route intraperitoneal; settings: in vivo
Mus musculus [7] = assay: Antiobesity activity in Sabra mouse assessed as reduction in body weight at 1 mg/kg, ip administered on day 0, 10, 11, 12, 24, 29 measured on day 19 relative to control; type: functional; set-up: scale not given: the % may be the effect or the level left; settings: route intraperitoneal
Mus musculus [8] = assay: Antiobesity activity in Sabra mouse assessed as change in body weight at 1 mg/kg, ip administered on day 8, 9, 10, 11, 14, 18, 24 and 32 measured on day 21 relative to control; type: functional; settings: route intraperitoneal
Mus musculus [9] = assay: Hepatotoxicity in Sabra mouse assessed as centrilobular apoptotic changes at 1 mg/kg, ip administered on day 8, 9, 10, 11, 14, 18, 24 and 32 by hematoxylin and eosin staining-based histopathological analysis; type: toxicity, organism-based; set-up: dose 1 mg/kg, route intraperitoneal; settings: in vivo
Mus musculus [10] = assay: Antiobesity activity in C57BL/6 mouse assessed as change in glucose level in blood at 5 mg/kg, ip administered on day 1, 4, 5, 7, 17, 15, 19 measured on day 11 relative to control; type: functional; settings: route intraperitoneal
Mus musculus [11] = assay: Antiobesity activity in Sabra mouse assessed as change in body weight at 1 mg/kg, ip administered on day 8, 12 and 43 measured on day 50 relative to control; type: functional; settings: route intraperitoneal
Mus musculus [12] = assay: Antiobesity activity in Sabra mouse assessed as change in food consumption at 1 mg/kg, ip administered on day 8, 9, 10, 11, 14, 18, 24 and 32 measured after 6 weeks relative to control; type: functional; settings: route intraperitoneal
Mus musculus [13] = assay: Antiobesity activity in Sabra mouse assessed as change in body weight at 1 mg/kg, ip administered on day 8, 12 and 43 measured on day 71 relative to control; type: functional; settings: route intraperitoneal
[14] = target: Transient receptor potential cation channel subfamily V member 1 (Rattus norvegicus) (UniProt O35433); assay: Displacement of [3H]resiniferatoxin from TRPV1 receptor in Wistar rat spinal cord at 10 uM relative to control
Mus musculus [15] = assay: Antiobesity activity in C57BL/6 mouse assessed as weight loss at 5 mg/kg, ip administered on day 1, 4, 5, 7, 17, 15, 19 measured on day 5 relative to control; type: functional; settings: route intraperitoneal
Mus musculus [16] = assay: Increase in ALT levels in Sabra mouse at 1 mg/kg, ip administered on day 8, 12 and 43 measured on day 74; type: ADME, organism-based; set-up: dose 1 mg/kg, route intraperitoneal; settings: in vivo
Mus musculus [17] = assay: Enhancement of cognitive function in Sabra mouse at 1 mg/kg, ip administered on day 6 to 10 by eight-arm maze test; type: functional, organism-based; set-up: dose 1 mg/kg
Mus musculus [18] = assay: Hepatotoxicity in Sabra mouse assessed as ischemic changes at 1 mg/kg, ip administered on day 8, 9, 10, 11, 14, 18, 24 and 32 by hematoxylin and eosin staining-based histopathological analysis; type: toxicity, organism-based; set-up: dose 1 mg/kg, route intraperitoneal; settings: in vivo
Mus musculus [19] = assay: Antiobesity activity in Sabra mouse assessed as change in body weight at 1 mg/kg, ip administered on day 8, 9, 10, 11, 14, 18, 24 and 32 measured on day 35 relative to control; type: functional; settings: route intraperitoneal
Mus musculus [20] = assay: Antiobesity activity in C57BL/6 mouse assessed as change in glucose level in blood at 5 mg/kg, ip administered on day 1, 4, 5, 7, 17, 15, 19 measured on day 9 relative to control; type: functional; settings: route intraperitoneal
Mus musculus [21] = assay: Antiobesity activity in C57BL/6 mouse assessed as weight loss at 5 mg/kg, ip administered on day 1, 4, 5, 7, 17, 15, 19 measured on day 12 relative to control; type: functional; settings: route intraperitoneal
Mus musculus [22] = assay: Antiobesity activity in Sabra mouse assessed as reduction in body weight at 1 mg/kg, ip administered on day 0, 10, 11, 12, 24, 29 measured on day 36 relative to control; type: functional; set-up: scale not given: the % may be the effect or the level left; settings: route intraperitoneal
Mus musculus [23] = assay: Antiobesity activity in C57BL/6 mouse assessed as change in cholesterol level at 5 mg/kg, ip measured on day 36 (reference value: 86.58 mg/dL); type: functional; settings: route intraperitoneal
Mus musculus [24] = assay: Antiobesity activity in Sabra mouse assessed as reduction in body weight at 1 mg/kg, ip administered on day 0, 10, 11, 12, 24, 29 measured on day 29 relative to control; type: functional; set-up: scale not given: the % may be the effect or the level left; settings: route intraperitoneal
Mus musculus [25] = assay: Antiobesity activity in Sabra mouse assessed as reduction in body weight at 1 mg/kg, ip administered on day 0, 10, 11, 12, 24, 29 measured on day 39 relative to control; type: functional; set-up: scale not given: the % may be the effect or the level left; settings: route intraperitoneal
Mus musculus [26] = assay: Hepatotoxicity in Sabra mouse assessed as inflammatory changes at 1 mg/kg, ip administered on day 8, 9, 10, 11, 14, 18, 24 and 32 by hematoxylin and eosin staining-based histopathological analysis; type: toxicity, organism-based; set-up: dose 1 mg/kg, route intraperitoneal; settings: in vivo
Mus musculus [27] = assay: Enhancement of motor activity in Sabra mouse at 1 mg/kg, ip administered on day 6 to 10 by open field test relative to control; type: functional; settings: route intraperitoneal
Mus musculus [28] = assay: Antiobesity activity in C57BL/6 mouse assessed as weight loss at 5 mg/kg, ip administered on day 1, 4, 5, 7, 17, 15, 19 measured on day 8 relative to control; type: functional; settings: route intraperitoneal
Mus musculus [29] = assay: Enhancement of motor activity C57BL/6 mouse assessed as reduction food consumption at 1 mg/kg, ip administered on day 3, 6, 8, 9, 10 measured on day 10; type: functional, organism-based; set-up: dose 1 mg/kg
Mus musculus [30] = assay: Antiobesity activity in Sabra mouse assessed as change in body weight at 1 mg/kg, ip administered on day 8, 9, 10, 11, 14, 18, 24 and 32 measured on day 30 relative to control; type: functional; settings: route intraperitoneal
Mus musculus [31] = assay: Antiobesity activity in Sabra mouse assessed as change in body weight at 1 mg/kg, ip administered on day 8, 12 and 43 measured on day 43 relative to control; type: functional; settings: route intraperitoneal
Hypothalamus = assay: Decrease in 2-AG level in Sabra mouse hypothalamus at 8 mg/kg, ip for 39 days (reference value: 100 +/- 7 %); type: functional; set-up: scale not given: the % may be the effect or the level left; settings: route intraperitoneal
Mus musculus [32] = assay: Antiobesity activity in C57BL/6 mouse assessed as weight loss at 5 mg/kg, ip administered on day 1, 4, 5, 7, 17, 15, 19 measured on day 17 relative to control; type: functional; settings: route intraperitoneal

Sequence of Transient receptor potential cation channel subfamily V member 1 (Rattus norvegicus) (O35433 whole entry): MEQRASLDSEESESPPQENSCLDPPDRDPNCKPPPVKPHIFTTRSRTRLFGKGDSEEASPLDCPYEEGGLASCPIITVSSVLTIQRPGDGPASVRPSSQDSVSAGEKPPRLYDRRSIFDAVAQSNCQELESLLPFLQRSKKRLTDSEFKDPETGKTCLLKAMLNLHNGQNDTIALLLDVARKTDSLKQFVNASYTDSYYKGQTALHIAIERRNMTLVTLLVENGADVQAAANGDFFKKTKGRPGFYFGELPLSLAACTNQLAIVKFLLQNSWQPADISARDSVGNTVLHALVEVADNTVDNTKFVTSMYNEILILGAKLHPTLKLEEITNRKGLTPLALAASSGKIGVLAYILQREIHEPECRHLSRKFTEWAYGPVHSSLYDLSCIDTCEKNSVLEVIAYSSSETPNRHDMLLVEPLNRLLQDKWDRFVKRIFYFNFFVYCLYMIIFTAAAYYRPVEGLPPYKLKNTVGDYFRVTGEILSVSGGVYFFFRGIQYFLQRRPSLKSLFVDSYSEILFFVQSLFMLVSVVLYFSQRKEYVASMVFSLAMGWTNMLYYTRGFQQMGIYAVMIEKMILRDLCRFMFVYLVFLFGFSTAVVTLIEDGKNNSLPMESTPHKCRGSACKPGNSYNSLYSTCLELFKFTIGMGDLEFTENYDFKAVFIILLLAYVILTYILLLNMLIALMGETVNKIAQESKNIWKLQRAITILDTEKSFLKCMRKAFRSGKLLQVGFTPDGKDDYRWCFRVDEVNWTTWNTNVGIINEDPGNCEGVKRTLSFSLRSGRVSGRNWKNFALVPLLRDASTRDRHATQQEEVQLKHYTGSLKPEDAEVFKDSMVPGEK

CCCCCCCC/C=C\CCCCCCCC(=O)N[C@H](CO)C(C)C
Activity (Mus musculus [1]): -1.8% | Activity (Mus musculus [2]): -2.2% | Activity (Mus musculus [3]): -2.6% | Activity (Mus musculus [4]): 93.8% | Activity (Mus musculus [5]): -16.3% | Activity (Mus musculus [6]): Non-toxic | Activity (Mus musculus [7]): -1.85% | Activity (Mus musculus [8]): -2.4% | Activity (Mus musculus [9]): Non-toxic | Activity (Mus musculus [10]): -17.3% | Activity (Mus musculus [11]): -6% | Activity (Mus musculus [12]): 83.6% | Activity (Mus musculus [13]): -11.4% | inhibition [14]: 1% | Activity (Mus musculus [15]): -3.2% | Activity (Mus musculus [16]): Not Active | Activity (Mus musculus [17]): Active | Activity (Mus musculus [18]): Non-toxic | Activity (Mus musculus [19]): -6.2% | Activity (Mus musculus [20]): -11.8% | Activity (Mus musculus [21]): -5.6% | Activity (Mus musculus [22]): -5.49% | Activity (Mus musculus [23]): 83.01 mg/dL | Activity (Mus musculus [24]): -5.98% | Activity (Mus musculus [25]): -7.31% | Activity (Mus musculus [26]): Non-toxic | Activity (Mus musculus [27]): 20% | Activity (Mus musculus [28]): -4.6% | Activity (Mus musculus [29]): Active | Activity (Mus musculus [30]): -5.2% | Activity (Mus musculus [31]): -7.5% | Activity (Hypothalamus): 44.5% | Activity (Mus musculus [32]): -3.6%
